Test results: patent publication US11708348B2, “Protease inhibitors for treatment of coronavirus infections” (The Scripps Research Institute, priority 2021, dated 2023)
Like-named read-outs stand apart in the source and are kept apart here.

System: SARS-CoV-2 strain USA-WA1/2020
Assay: microbe, parasite or virus in culture
Format: cell-based
Conditions: Severe acute respiratory syndrome coronavirus 2, HeLa-ACE2, 24 h, HeLa-ACE2 cells, SARS-CoV-2 infection, 24 h, read-out: EC50, uM (Hela)

Work on `CC(C)(NC(=O)C(=O)N1C[C@@H]2CCC[C@@H]2[C@H]1C(=O)N[C@@H](C[C@@H]1CCNC1=O)C(=O)COC(F)(F)F)C(F)F` [Compound 554, (1S,3aR,6aS)-2-(2-((1,1-difluoro-2-methylpropan-2-yl)amino)-2-oxoacetyl)-N-((S)-3-oxo-1-((S)-2-oxopyrrolidin-3-yl)-4-(trifluoromethoxy)butan-2-yl)octahydro-cyclopenta[c]pyrrole-1-carboxamide] yielded an EC50 of 0.05 to 0.2 µM.

For `CC(C)(NC(=O)C(=O)N1C[C@H]2[C@@H]([C@H]1C(=O)N[C@@H](C[C@@H]1CCNC1=O)C(=O)COC(F)(F)F)C2(C)C)C(F)F` [Compound 555, (1R,2S,5S)-3-(2-((l,l-difluoro-2-methylpropan-2-yl)amino)-2-oxoacetyl)-6,6-dimethyl-N-((S)-3-oxo-1-((S)-2-oxopyrrolidin-3-yl)-4-(trifluoromethoxy)butan-2-yl)-3-azabicyclo-[3.1.0]hexane-2-carboxamide], the EC50 was < 0.05 µM.

`O=C1NCC[C@H]1C[C@H](NC(=O)[C@@H]1[C@H]2CCC[C@H]2CN1C(=O)c1noc2c1CNCC2)C(=O)COC(F)(F)F` [Compound 556, (1S,3aR,6aS)-N-((S)-3-oxo-1-((S)-2-oxopyrrolidin-3-yl)-4-(trifluoromethoxy)butan-2-yl)-2-(4,5,6,7-tetrahydroisoxazolo[4,5-c]pyridine-3-carbonyl)octahydro-cyclopenta[c]pyrrole-1-carboxamide] was tested, and the EC50 (given as bound) was > 1 µM.

For `O=C1NCC[C@H]1C[C@H](NC(=O)[C@@H]1[C@H]2CCC[C@H]2CN1C(=O)c1noc2ccccc12)C(=O)COC(F)(F)F` [Compound 557, (1S,3aR,6aS)-2-(benzo[d]isoxazole-3-carbonyl)-N-((S)-3-oxo-1-((S)-2-oxopyrrolidin-3-yl)-4-(trifluoromethoxy)butan-2-yl)octahydro-cyclopenta[c]pyrrole-1-carboxamide], the EC50 was < 0.05 µM.

With `CC1(NC(=O)C(=O)N2CC3(CCC3)C[C@H]2C(=O)N[C@@H](C[C@@H]2CCNC2=O)C(=O)COC(F)(F)F)CC1` [Compound 558, (S)-6-(2-((l-methylcyclopropyl)-amino)-2-oxoacetyl)-N-((S)-3-oxo-1-((S)-2-oxopyrrolidin-3-yl)-4-(trifluoromethoxy)butan-2-yl)-6-azaspiro[3.4]octane-7-carboxamide] the EC50 (given as bound) was > 1 µM.

In the case of `O=C1NCC[C@H]1C[C@H](NC(=O)[C@@H]1[C@H]2CCC[C@H]2CN1C(=O)OC1CCOC1)C(=O)COC(F)(F)F` (stereo partly drawn) [Compound 559, tetrahydrofuran-3-yl (1S,3aR,6aS)-1-(((S)-3-oxo-1-((S)-2-oxopyrrolidin-3-yl)-4-(trifluoromethoxy)butan-2-yl)carbamoyl)-hexahydrocyclo-penta[c]-pyrrole-2(1H)-carboxylate], the EC50 is reported as 0.05 to 0.2 µM.

With `CC(C)(C)NC(=O)C(=O)N1C[C@H]2C[C@]1(C(=O)N[C@@H](C[C@@H]1CCNC1=O)C(=O)COC(F)(F)F)C2` [Compound 560, (1s,4R)-2-(2-(tert-butylamino)-2-oxoacetyl)-N-((S)-3-oxo-1-((S)-2-oxopyrrolidin-3-yl)-4-(trifluoromethoxy)butan-2-yl)-2-azabicyclo-[2.1.1]hexane-1-carboxamide] the EC50 (given as bound) was > 1 µM.

`CC(C)(C)NC(=O)C(=O)N1C[C@@H]2CC[C@@H]2[C@H]1C(=O)N[C@@H](C[C@@H]1CCNC1=O)C(=O)COC(F)(F)F` [Compound 561, (1S,2S,5R)-3-(2-(tert-butylamino)-2-oxoacetyl)-N-((S)-3-oxo-1-((S)-2-oxopyrrolidin-3-yl)-4-(trifluoromethoxy)butan-2-yl)-3-azabicyclo-[3.2.0]heptane-2-carboxamide] was tested, and the EC50 was 0.2 to 0.5 µM.

In the case of `O=C(Nc1ccccc1F)C(=O)N1C[C@H]2C[C@]1(C(=O)N[C@@H](C[C@@H]1CCNC1=O)C(=O)COC(F)(F)F)C2` [Compound 562, (1 s,4R)-2-(2-((2-fluorophenyl)amino)-2-oxoacetyl)-N-((S)-3-oxo-1-((S)-2-oxopyrrolidin-3-yl)-4-(trifluoromethoxy)butan-2-yl)-2-azabicyclo-[2.1.1]hexane-1-carboxamide], the EC50 (given as bound) is reported as > 1 µM.

With `O=C(Nc1ccccc1F)C(=O)N1C[C@@H]2CC[C@@H]2[C@H]1C(=O)N[C@@H](C[C@@H]1CCNC1=O)C(=O)COC(F)(F)F` [Compound 563, (1S,2S, 5R)-3-(2-((2-fluorophenyl)amino)-2-oxoacetyl)-N-((S)-3-oxo-1-((S)-2-oxopyrrolidin-3-yl)-4-(trifluoromethoxy)butan-2-yl)-3-azabicyclo-[3.2.0]heptane-2-carboxamide] the EC50 was 0.05 to 0.2 µM.

With `CC(C)(C[C@H](NC(=O)C(=O)NC12CC(F)(C1)C2)C(=O)N[C@@H](C[C@@H]1CCNC1=O)C(=O)COC(F)(F)F)C(F)F` [Compound 564, N1-((S)-5,5-difluoro-4,4-dimethyl-1-oxo-1-(((S)-3-oxo-1-((S)-2-oxopyrrolidin-3-yl)-4-(trifluoromethoxy)butan-2-yl)amino)pentan-2-yl)-N2-(3-fluorobicyclo[1.1.1]-pentan-1-yl)oxalamide] the EC50 was < 0.05 µM.

In the case of `O=C(N[C@@H](CC1CCC1)C(=O)N[C@@H](C[C@@H]1CCNC1=O)C(=O)COC(F)(F)F)C(=O)NC12CC(F)(C1)C2` [Compound 565, N1-((S)-3-cyclobutyl-1-oxo-1-(((S)-3-oxo-1-((S)-2-oxopyrrolidin-3-yl)-4-(trifluoromethoxy)butan-2-yl)amino)propan-2-yl)-N2-(3-fluorobicyclo[1.1.1]-pentan-1-yl)oxalamide], the EC50 is reported as < 0.05 µM.

In the case of `CC(C)(C#N)NC(=O)C(=O)N1C[C@@H]2CCC[C@@H]2[C@H]1C(=O)N[C@@H](C[C@@H]1CCNC1=O)C(=O)COC(F)(F)F` [Compound 566, (1S,3aR,6aS)-2-(2-((2-cyanopropan-2-yl)amino)-2-oxoacetyl)-N-((S)-3-oxo-1-((S)-2-oxopyrrolidin-3-yl)-4-(trifluoromethoxy)butan-2-yl)octahydrocyclo-penta[c]pyrrole-1-carboxamide], the EC50 is reported as 0.05 to 0.2 µM.

In the case of `CC(C)(C)NC(=O)C(=O)N1CCC[C@@]1(CC1CC1)C(=O)N[C@@H](C[C@@H]1CCNC1=O)C(=O)COC(F)(F)F` [Compound 567, (R)-1-(2-(tert-butylamino)-2-oxoacetyl)-2-(cyclopro-pylmethyl)-N-((S)-3-oxo-1-((S)-2-oxopyrrolidin-3-yl)-4-(trifluoromethoxy)butan-2-yl)pyrrolidine-2-carboxamide], the EC50 is reported as 0.2 to 0.5 µM.

Compound `CC1(C)CCc2onc(C(=O)N3CC4(CC4)C[C@H]3C(=O)N[C@@H](C[C@@H]3CCNC3=O)C(=O)COC(F)(F)F)c2C1` [Compound 568, (S)-5-(5,5-dimethyl-4,5,6,7-tetrahydro-benzo[d]isoxazole-3-carbonyl)-N-((S)-3-oxo-1-((S)-2-oxopyrrolidin-3-yl)-4-(trifluoromethoxy)butan-2-yl)-5-azaspiro[2.4]-heptane-6-carboxamide] has an EC50 of 0.05 to 0.2 µM.

For `COC(=O)C(=O)N1C[C@@H]2CCC[C@@H]2[C@H]1C(=O)N[C@@H](C[C@@H]1CCNC1=O)C(=O)COC(F)(F)F` [Compound 569, methyl 2-oxo-2-((1S,3aR,6aS)-1-(((S)-3-oxo-1-((S)-2-oxopyrrolidin-3-yl)-4-(trifluoromethoxy)butan-2-yl)carbamoyl)-hexahydrocyclo-penta[c]-pyrrol-2(1H)-yl)acetate], the EC50 (given as bound) was > 1 µM.

In the case of `O=C(NCC(F)(F)F)C(=O)N1CC2(CC2)C[C@H]1C(=O)N[C@@H](C[C@@H]1CCNC1=O)C(=O)COC(F)(F)F` [Compound 570], the EC50 is reported as 0.05 to 0.2 µM.

Compound `CC1(NC(=O)C(=O)N2CC3(CC3)C[C@H]2C(=O)N[C@@H](C[C@@H]2CCNC2=O)C(=O)COC(F)(F)F)CC1` [Compound 571, (S)-5-(2-((l-methylcyclopropyl)-amino)-2-oxoacetyl)-N-((S)-3-oxo-1-((S)-2-oxopyrrolidin-3-yl)-4-(trifluoromethoxy)butan-2-yl)-5-azaspiro[2.4]-heptane-6-carboxamide] has an EC50 of 0.05 to 0.2 µM.

`O=C1NCC[C@H]1C[C@H](NC(=O)[C@@H]1CC2(CC2)CN1C(=O)c1cc(C(F)F)on1)C(=O)COC(F)(F)F` [Compound 572, (S)-5-(5-(difluoromethyl)-isoxazole-3-carbonyl)-N-((S)-3-oxo-1-((S)-2-oxopyrrolidin-3-yl)-4-(trifluoromethoxy)butan-2-yl)-5-azaspiro[2.4]-heptane-6-carboxamide] was tested, and the EC50 was < 0.05 µM.

For `CC1(C[C@H](NC(=O)C(=O)NC23CC(F)(C2)C3)C(=O)N[C@@H](C[C@@H]2CCNC2=O)C(=O)COC(F)(F)F)CCC1` [Compound 573, N1-(3-fluorobicyclo[1.1.1]pentan-1-yl)-N2-((S)-3-(1-methylcyclobutyl)-1-oxo-1-(((S)-3-oxo-1-((S)-2-oxopyrrolidin-3-yl)-4-(trifluoromethoxy)butan-2-yl)amino)propan-2-yl)oxalamide], the EC50 was < 0.05 µM.

In the case of `CC(C)(C)NC(=O)C(=O)N1C[C@@H]2CCC[C@@H]2[C@H]1C(=O)N[C@@H](Cc1ccc[nH]c1=O)C(=O)COC(F)(F)F` [Compound 574, (1S,3aR,6aS)-2-(2-(tert-butylamino)-2-oxoacetyl)-N-((S)-3-oxo-1-(2-oxo-1,2-dihydropyridin-3-yl)-4-(trifluoromethoxy)butan-2-yl)octahydrocyclo-penta[c]pyrrole-1-carboxamide], the EC50 is reported as 0.5 to 1 µM.

In the case of `COc1ccccc1NC(=O)C(=O)N1CC2(CC2)C[C@H]1C(=O)N[C@@H](C[C@@H]1CCNC1=O)C(=O)COC(F)(F)F` [Compound 575, (S)-5-(2-((2-methoxyphenyl)-amino)-2-oxoacetyl)-N-((S)-3-oxo-1-((S)-2-oxopyrrolidin-3-yl)-4-(trifluoromethoxy)butan-2-yl)-5-azaspiro[2.4]-heptane-6-carboxamide], the EC50 is reported as 0.5 to 1 µM.

In the case of `O=C(Nc1ccccc1C(F)(F)F)C(=O)N1CC2(CC2)C[C@H]1C(=O)N[C@@H](C[C@@H]1CCNC1=O)C(=O)COC(F)(F)F` [Compound 576, (S)-N-((S)-3-oxo-1-((S)-2-oxopyrrolidin-3-yl)-4-(trifluoromethoxy)butan-2-yl)-5-(2-oxo-2-((2-(trifluoromethyl)-phenyl)amino)acetyl)-5-azaspiro[2.4]-heptane-6-carboxamide], the EC50 is reported as < 0.05 µM.
